Results reported in patent US20150094354A1, “METHOD FOR TREATING CELL PROLIFERATIVE DISORDER BY INHIBITING C1GALT1 EXPRESSION” (National Taiwan University, priority 2013, published 2015).

How the values were obtained:
Format in all cases: cell-based, human
[1] = tested on: PLC5 cells; test: Cell-cycle analysis by propidium iodide flow cytometry; conditions: PLC5 (not shown)
Description: (§1) Cells (4×10^4) are seeded in each well of 6-well plates with DMEM containing 10% FBS. Viable cells are analyzed by Trypan blue exclusion assay at 0, 24, 48, and 72 hours. Cell proliferation is evaluated by immunostaining with anti-Ki67 antibody (1:1000; Vector Laboratories). For cell-cycle analysis, 1×10^6 cells are stained with propidium iodide (Sigma) for 30 minutes. The percentages of cells in G1, S, and G2M phases are analyzed by flow cytometry (Becton Dickinson).
(§2) FIGS. 10A-10B are schematic diagrams illustrating the effects of C1GALT1 on cell proliferation of hepatocellular carcinoma cells in vitro in accordance with an embodiment of the present invention. Cells were immunofluorescently stained for Ki67 and Ki67-positive cells were counted under a microscope. Results are presented as means±SD from three independent experiments. *, P<0.05; **, P<0.01.

[2] = tested on: HA22T cells; test: as above; conditions: HA22T (not shown)
Description: as §1, §2

[3] = tested on: O-glycans on glycoproteins; test: Western blotting with biotinylated VVA of glycoproteins in hepatocellular carcinoma cells
Description: Vicia villosa agglutinin (VVA)- and peanut agglutinin (PNA) lectin-conjugated agarose beads, fluorescein isothiocyanate (FITC)-, and biotinylated VVA were purchased from Vector Laboratories. Recombinant EGF, HGF, IGF-I, and protein deglycosylation kits were purchased from Sigma. Protein deglycosylation is carried out using an Enzymatic Protein Deglycosylation Kit (Sigma). Briefly, cell lysates are treated with neuraminidase or PNGase F at 37° C. for 1 hour. For lectin blotting, […] of cell lysate is separated by an 8% SDS-PAGE, transferred to polyvinylidene difluoride membrane (Millipore), and blotted with biotinylated VVA (1:10,000). For lectin pull-down assay, cell lysates (0.3 mg) are incubated with or without deglycosylation enzymes and then applied to VVA- or PNA-conjugated agarose beads at 4° C. for 16 hours. The pulled down proteins are analyzed by Western blotting.
HA22T and PLC5 cells express high levels of C1GALT1, while Sk-Hep1 and HCC36 cells express low levels of C1GALT1, as shown in FIG. 6B. […] Compared with pcDNA3.1 empty plasmid (mock), overexpression of C1GALT1 in Sk-Hep1 and HCC36 cells transfected with C1GALT1/pcDNA3.1 plasmid (C1GALT1) is shown in FIG. 7B Immunofluorescence microscopy further confirmed the knockdown and overexpression of C1GALT1 in hepatocellular carcinoma cells and its subcellular localization in the Golgi apparatus (not shown). […] Proteins with evident changes in VVA binding are indicated by arrows. p140 changes in all tested cell lines are indicated by red arrows.

[4] = tested on: PLC5 cells; test: Trypan blue exclusion cell viability assay; conditions: PLC5, up to 72 hours
Description: as §1
(§3) FIGS. 9A-9B are schematic diagrams illustrating the effects of C1GALT1 on the cell viability of hepatocellular carcinoma cells in vitro in accordance with an embodiment of the present invention. Cell viability of HA22T, PLC5, Sk-Hep1, and HCC36 cells was analyzed by Trypan blue exclusion assays at different time points for 72 hours. The results were standardized by the cell number at 0 hour. Data are represented as means±SD from three independent experiments. *, P<0.05; **, P<0.01.

[5] = tested on: HA22T cells; test: Trypan blue exclusion cell viability assay; conditions: up to 72 hours
Description: as §1, §3

[6] = tested on: HGF/MET signaling pathway; test: HGF-induced signaling by Western blotting
Description: Human liver cancer cell lines, Huh7, PLC5, Sk-Hep1, and HepG2, are purchased from Bioresource Collection and Research Center in the year 2008. HA22T, SNU387, and HCC36 cells are kindly provided by Prof. Shiou-Hwei Yeh (National Taiwan University) in the year 2010. All cell lines are authenticated by the provider based on morphology, antigen expression, growth, DNA profile, and cytogenetics. Cells are cultured in Dulbecco's Modified Eagle Medium (DMEM) containing 10% FBS in 5% CO2 at 37° C. To analyze growth factor-induced cell signaling, cells are starved in serum-free DMEM for 5 hours and then treated with 25 ng/mL of hepatocyte growth factor (HGF) or insulin-like growth factor (IGF) at 37° C. for 30 minutes.
Equal amounts of protein samples are mixed with 5× sample buffer and boiled for 5 minutes, separated on SDS-polyacrylamide gels, and then transferred to PVDF membrane. The membranes are blocked in 5% BSA for 1 hour at room temperature, and incubated with primary antibodies overnight at 4° C. Anti-phosphotyrosine (4G10) antibody (Millipore, Billerica, Mass.), antibodies against C1GALT1, GAPDH, IGF-IR, MET pY 1234/5, IGF-IR pY1135/1136, p-AKT, p-ERK1/2, and ERK1/2 antibody (BD Pharmingen, San Jose, Calif.) are used. The blots are then incubated with secondary antibody conjugated with horseradish peroxidase and immunoreacted bands are detected by ECL reagents and exposed on x-ray film.
FIGS. 13A-13B are autoradiograms illustrating the effects of C1GALT1 on the HGF-induced signaling and IGF-induced signaling in hepatocellular carcinoma cells in accordance with an embodiment of the present invention. The role of C1GALT1 in glycosylation and activation of MET in hepatocellular carcinoma cells was investigated. HA22T, PLC5, Sk-Hep1, and HCC36 cells were starved for 5 hours and then treated with (+)/without (−) HGF (25 ng/mL) or IGF (25 ng/mL) for 30 minutes. Cell lysates ([…]) were analyzed by Western blotting with various antibodies, as indicated. […] In contrast, overexpression of C1GALT1 enhanced HGF-induced activation of MET and increased p-AKT levels in Sk-Hep1 and HCC36 cells, as shown in FIG. 13B.

Substance: C1GALT1 si-1: siRNA oligonucleotide against C1GALT1, presumably SEQ ID NO: 1, UUAGUAUACGUUCAGGUAAGGUAGG (chemistry not given here)
- cell cycle [1]: G1-phase arrest
- cell cycle [2]: G1-phase arrest
- binding of VVA to glycoproteins ([3]; HA22T cells): enhanced
- binding of VVA to glycoproteins ([3]; PLC5 cells): enhanced
- cell viability [4]: significantly suppressed
- cell viability [5]: significantly suppressed
- HGF-induced phosphorylation of MET at Y1234/5 ([6]; HA22T, HGF 25 ng/mL 30 minutes): inhibited
- phosphorylation of AKT ([6]; HA22T, HGF 25 ng/mL 30 minutes): suppressed
- HGF-induced phosphorylation of MET at Y1234/5 ([6]; PLC5, HGF 25 ng/mL 30 minutes): inhibited
- phosphorylation of AKT ([6]; PLC5, HGF 25 ng/mL 30 minutes): suppressed

Substance: C1GALT1 si-2: siRNA oligonucleotide against C1GALT1, presumably SEQ ID NO: 2, UUAUGUUGGCUAGAAUCUGCAUUGA (chemistry not given here)
- cell cycle [1]: G1-phase arrest
- cell cycle [2]: G1-phase arrest
- binding of VVA to glycoproteins ([3]; HA22T cells): enhanced
- binding of VVA to glycoproteins ([3]; PLC5 cells): enhanced
- cell viability [4]: significantly suppressed
- cell viability [5]: significantly suppressed
- HGF-induced phosphorylation of MET at Y1234/5 ([6]; HA22T, HGF 25 ng/mL 30 minutes): inhibited
- phosphorylation of AKT ([6]; HA22T, HGF 25 ng/mL 30 minutes): suppressed
- HGF-induced phosphorylation of MET at Y1234/5 ([6]; PLC5, HGF 25 ng/mL 30 minutes): inhibited
- phosphorylation of AKT ([6]; PLC5, HGF 25 ng/mL 30 minutes): suppressed
